Article PMC11189555, “Aryl amino acetamides prevent Plasmodium falciparum ring development via targeting the lipid-transfer protein PfSTART1” (Nature Communications, 2024)
Several values for one entry are separate records, joined by “and”; a condition that tells them apart may be missing. Identical values can stand only once. Entries after “also recorded” stand apart in the source; their conditions may differ.

What was measured:
PfSTART1 [1] = experiment: PfSTART1 knock-down by glucosamine (glmS riboswitch), Western blot densitometry; format: cell-based, Plasmodium falciparum; details: 2.5 mM GlcN; for START densitometry, Norm 0 mM [EXP2]: one value per biological replicate; for START densitometry, norm 0/EXP2: START band normalised to EXP2, then to 0 mM GlcN of the same line; for START densitometry, norm 0/EXP2 / START densitometry, norm 0/HSP / START densitometry, norm 3D7, EXP2 / START densitometry, norm 3D7, HSP70: 3 biological replicates; for START densitometry, norm 0/HSP: START band normalised to HSP70, then to 0 mM GlcN of the same line; for START densitometry, norm 3D7, EXP2: START/EXP2 relative to 3D7 at 0 mM GlcN (=1.00E+02); for START densitometry, norm 3D7, HSP70: START/HSP70 relative to 3D7 at 0 mM GlcN (=1.00E+02); for PfSTART1 knockdown: 48 h
Method: Parasites were prepared for the stage of interest and proteins were extracted using a saponin-lysis (unless indicated otherwise). For knock-down assays, parasites were exposed to 0 or 2.5 mM GlcN for 48 h (starting from late schizont/early rings): the day before harvesting schizonts, 30 nM ML10 (LifeArc) was also added to the cultures to block egress. Infected red blood cells were lysed 10 min on ice with 0.1% saponin in PBS complemented with 1x Protease Inhibitors Cocktail (Roche; PBS + PI). Parasites were pelleted and washed with PBS + PI to remove haemoglobin. […] Protein samples were centrifuged at 15,000 g, then run on a pre-cast 4-12% NuPAGE Bis-Tris gel (Invitrogen) and proteins were transferred onto a nitrocellulose membrane using iBlot (Invitrogen). Membranes were exposed to the primary antibody overnight at 4 °C, to the secondary antibody 1 h at room temperature, and fluorescence was measured using an Odyssey imaging system, which was also used to measure densitometry. The list of antibodies used, their dilution, and origins are described in Table S3.

P. falciparum merozoites = tested on: P. falciparum merozoites; design: method as in earlier work; details: live cell imaging; ref 11 (Dans et al 2020); cited from earlier work
PfSTART1 [2] = target: T1, PfSTART1 (Plasmodium falciparum, UniProt Q8I298); format: binding; details: 100 µM W-991 vs DMSO; 7-25% AEF; p = 0.0014
T1 construct: endogenous in cells; host or cells: P. falciparum mature blood stages (30-42 hpi), soluble lysate
Method: The experiment was carried out in three biological replicates. Saponin-liberated mature parasite stages (30-42 hpi) were resuspended in PBS and lysed by 3x flash freeze/thawing using liquid N2, followed by 10 x mechanical sheering with a 29 G needle-syringe, and soluble protein isolation through ultracentrifugation (100,000 g; 20 min, 4 °C). Protein lysate was exposed to the 100 µM of W-991 or the vehicle control (DMSO) for 3 min and subsequently incubated with varying concentration of the solvent mixture ‘AEF’ (50% Acetone, 50% Ethanol, 0.1% Formate) to a final concentration of 7-25% (v/v) with 2% intervals, for 20 min at 37 °C at 800 rpm on a Thermomixer (Eppendorf). Denatured protein was pelleted through centrifugation (4 °C, 18,000 g, 20 min), and the soluble phase was recovered and pulled together in equivolume ratios into two samples; Gradient 1 ‘G1’: 7-15% EAF and Gradient 2 ‘G2’: 17-25% EAF, respectively. […]
Peptide samples were analysed on Orbitrap Eclipse Tribrid mass spectrometer that is interfaced with the Neo Vanquish liquid chromatography system. […] Subsequently, the differential abundance analysis (moderated t-test, based on limma package[81]) of P. falciparum proteins was conducted in the R environment (R version 4.2.0; R Studio Version 2023.12.1 + 402) using precursor normalised MaxLFQ data for proteins detected with ≥2 peptides. […]

[3] = tested on: merozoites-associated armadillo repeats protein (MAAP, PF3D7_1035900); experiment: Solvent-PISA (solvent proteome profiling, DIA-MS); format: binding, Plasmodium falciparum; details: 100 µM W-991 vs DMSO; 7-25% AEF
Method: The experiment was carried out in three biological replicates. Saponin-liberated mature parasite stages (30-42 hpi) were resuspended in PBS and lysed by 3x flash freeze/thawing using liquid N2, followed by 10 x mechanical sheering with a 29 G needle-syringe, and soluble protein isolation through ultracentrifugation (100,000 g; 20 min, 4 °C). Protein lysate was exposed to the 100 µM of W-991 or the vehicle control (DMSO) for 3 min and subsequently incubated with varying concentration of the solvent mixture ‘AEF’ (50% Acetone, 50% Ethanol, 0.1% Formate) to a final concentration of 7-25% (v/v) with 2% intervals, for 20 min at 37 °C at 800 rpm on a Thermomixer (Eppendorf). Denatured protein was pelleted through centrifugation (4 °C, 18,000 g, 20 min), and the soluble phase was recovered and pulled together in equivolume ratios into two samples; Gradient 1 ‘G1’: 7-15% EAF and Gradient 2 ‘G2’: 17-25% EAF, respectively.
Sample preparation for proteomic analysis was carried out using modified SP4 glass beads protocol. In brief, protein was reduced (20 mM TCEP, 100 mM TEAB) for 20 min at 55 °C and alkylated with 55 mM 2-Chloroacetamide for 30 min, followed by precipitation on beads in 80% ACN with a 6 min centrifugation at 21,000 g and 3 x wash with 80% Ethanol. Dried beads were subjected to sequential digestion with LysC (3 h, 1:50 ratio w/w) and trypsin (overnight, 1:50 ratio w/w), and the resulting digest was acidified with 1% TFA and desalted on T3 C18 stage tips (Affinisep) according to manufacturer’s specifications.
Peptide samples were analysed on Orbitrap Eclipse Tribrid mass spectrometer that is interfaced with the Neo Vanquish liquid chromatography system. Samples were loaded onto a C18 fused silica column (inner diameter 75 µm, OD 360 µm × 15 cm length, 1.6 µm C18 beads) packed into an emitter tip (IonOpticks) using pressure-controlled loading with a maximum pressure of 1,500 bar, that is interfaced to the mass spectrometer using Easy nLC source and electro sprayed directly into the mass spectrometer. Sample separation was carried out on a linear gradient 5% to 17% of solvent-B at 400 nL /min flow rate (solvent-B: 80% (by vol) acetonitrile) for 23 min and 17% to 25% solvent-B for 10 min, 25% to 34% for 11 min and 34% to 90% solvent-B for 1 min which was maintained at 90% B for 3 min and washed the column at 2% solvent-B for another 3 min comprising a total of 63 min run with a 45 min gradient in a data independent acquisition (DIA) mode MS scan parameters included a full scan using an orbitrap and 120,000 resolution, standard AGC target and maximum injection time of 30 ms. A second DIA experiment used the orbitrap at […] resolution, a precursor scan range of 200-1200 m/z with a normalized AGC target of 3000% and 45 variable isolation windows. Peptides were isolated and fragmented using stepped […] (HCD) at 24%, 28% and 32% normalized collision energy. Peptide identification was carried out in DIA-NN 1.8.1 using standard settings and an in silico spectral library generated from Uniprot P. falciparum (UP000001450) and human (UP000005640) reference proteomes. The peptide length range was set to 7-30 amino acids. […] Subsequently, the differential abundance analysis (moderated t-test, based on limma package[81]) of P. falciparum proteins was conducted in the R environment (R version 4.2.0; R Studio Version 2023.12.1 + 402) using precursor normalised MaxLFQ data for proteins detected with ≥2 peptides. […]

T1 sequence (Q8I298 entry or part of it): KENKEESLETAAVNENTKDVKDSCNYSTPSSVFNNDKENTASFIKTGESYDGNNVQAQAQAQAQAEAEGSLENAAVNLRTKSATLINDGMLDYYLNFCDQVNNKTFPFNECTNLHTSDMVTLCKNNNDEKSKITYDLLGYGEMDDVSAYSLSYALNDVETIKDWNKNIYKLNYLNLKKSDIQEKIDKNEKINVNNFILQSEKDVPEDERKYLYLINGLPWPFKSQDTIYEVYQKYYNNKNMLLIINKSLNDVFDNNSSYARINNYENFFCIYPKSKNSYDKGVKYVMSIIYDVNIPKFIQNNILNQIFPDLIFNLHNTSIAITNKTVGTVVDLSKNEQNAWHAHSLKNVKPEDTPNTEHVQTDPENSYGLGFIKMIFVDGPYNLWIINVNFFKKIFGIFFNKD

N[C@H]1C(O)O[C@H](CO)[C@@H](O)[C@@H]1O (some centres unmarked) [GlcN, glucosamine]
START densitometry, Norm 0 mM [EXP2] (PfSTART1 [1]; 3D7): 1.02E+02 and 1.14E+02 and 9.72E+01 | START densitometry, norm 0/EXP2 (PfSTART1 [1]; 3D7 parasites): 1.29E+02 and 9.38E+01 and 8.16E+01 | START densitometry, norm 0/HSP (PfSTART1 [1]; 3D7 parasites): 1.32E+02 and 1.01E+02 and 9.77E+01 | START densitometry, norm 3D7, EXP2 (PfSTART1 [1]; 3D7 parasites): 1.29E+02 and 9.38E+01 and 8.16E+01 | START densitometry, norm 3D7, HSP70 (PfSTART1 [1]; 3D7 parasites): 1.32E+02 and 1.01E+02 and 9.77E+01 | START densitometry, norm 0/EXP2 (PfSTART1 [1]; CR-N309K parasites): 1.17E+01 and 2.98E+01 and 1.90E+01 | START densitometry, norm 0/HSP (PfSTART1 [1]; CR-N309K parasites): 2.14E+01 and 2.66E+01 and 2.27E+01 | START densitometry, norm 3D7, EXP2 (PfSTART1 [1]; CR-N309K parasites): 1.40E+01 and 3.50E+01 and 1.71E+01 | START densitometry, norm 3D7, HSP70 (PfSTART1 [1]; CR-N309K parasites): 1.73E+01 and 1.93E+01 and 2.63E+01 | PfSTART1 knockdown (PfSTART1 [1]; CR-N309K schizonts): 81% | START densitometry, norm 0/EXP2 (PfSTART1 [1]; CR-N330K parasites): 1.02E+01 and 3.10E+01 and 7.15E+00 | START densitometry, norm 0/HSP (PfSTART1 [1]; CR-N330K parasites): 2.77E+01 and 2.71E+01 and 1.13E+01 | START densitometry, norm 3D7, EXP2 (PfSTART1 [1]; CR-N330K parasites): 1.13E+01 and 3.35E+01 and 1.19E+01 | START densitometry, norm 3D7, HSP70 (PfSTART1 [1]; CR-N330K parasites): 2.31E+01 and 2.22E+01 and 2.51E+01 | PfSTART1 knockdown (PfSTART1 [1]; CR-N330K schizonts): 84% | START densitometry, norm 0/EXP2 (PfSTART1 [1]; CR-WT parasites): 2.42E+01 and 2.14E+01 and 2.95E+01 | START densitometry, norm 0/HSP (PfSTART1 [1]; CR-WT parasites): 2.70E+01 and 2.58E+01 and 2.79E+01 | START densitometry, norm 3D7, EXP2 (PfSTART1 [1]; CR-WT parasites): 3.52E+01 and 2.52E+01 and 2.73E+01 | START densitometry, norm 3D7, HSP70 (PfSTART1 [1]; CR-WT parasites): 2.33E+01 and 2.02E+01 and 4.40E+01 | PfSTART1 knockdown (PfSTART1 [1]; CR-WT schizonts): 75% | PfSTART1 knockdown (PfSTART1 [1]; SLI-N309K schizonts): 43% | START densitometry, Norm 0 mM [EXP2] (PfSTART1 [1]; SLI-N309K): 5.39E+01 and 7.05E+01 and 4.74E+01 | PfSTART1 knockdown (PfSTART1 [1]; SLI-N330K schizonts): 70% | START densitometry, Norm 0 mM [EXP2] (PfSTART1 [1]; SLI-N330K): 2.99E+01 and 2.84E+01 and 3.23E+01 | PfSTART1 knockdown (PfSTART1 [1]; SLI-WT schizonts): 60% | START densitometry, Norm 0 mM [EXP2] (PfSTART1 [1]; SLI-WT): 5.15E+01 and 2.89E+01 and 3.95E+01

Cc1cc(Cl)c(S(=O)(=O)N2CCCC2)cc1OCC(=O)NC1CCCCC1 [M-833]
effect on merozoite invasion and ring differentiation (P. falciparum merozoites): invasion itself was slowed down but not reduced; also recorded: failed to differentiate into an amoeboid ring-stage parasite

CC(C)(Nc1ccc(Cl)c(S(=O)(=O)N2CCOCC2)c1)C(=O)Nc1ccc(F)c(Cl)c1 [W-991]
soluble protein level in the presence of compound (stabilisation) (PfSTART1 [2]): significantly (p < 0.01) increased levels | soluble protein level in the presence of compound (stabilisation) [3]: drug-stabilised
